According to patent publication US9210927B2, “Pesticidal compositions and processes related thereto” (Dow AgroSciences LLC, priority 2013, dated 2015):

What was measured:
Type in all cases: in vivo
[1] = tested on: GPA (Myzus persicae); assay: Bioassays on Green Peach Aphid (GPA), foliar spray on cabbage seedlings; conditions: 72 h, corrected % control (Abbott), 200 ppm spray on cabbage seedlings, three days, read-out: GPA Rating
Method: Bioassays on Green Peach Aphid (“GPA”) (Myzus persicae) Certain molecules disclosed in this document were tested against GPA using procedures described in the following example. In the reporting of the results, the “GPA Rating Table” was used (See Table Section). Cabbage seedlings grown in 3-inch pots, with 2-3 small (3-5 cm) true leaves, were used as test substrate. The seedlings were infested with 20-50 GPA (wingless adult and nymph stages) one day prior to chemical application. Four pots with individual seedlings were used for each treatment. Test compounds (2 mg) were dissolved in 2 mL of acetone/MeOH (1:1) solvent, forming stock solutions of 1000 ppm test compound. The stock solutions were diluted 5× with 0.025% Tween 20 in H2O to obtain the solution at 200 ppm test compound. A hand-held aspirator-type sprayer was used for spraying a solution to both sides of […] leaves until runoff. Reference plants (solvent check) were sprayed with the diluent only containing 20% by volume of acetone/MeOH (1:1) solvent. Treated plants were held in a holding room for three days at approximately 25° C. and ambient relative humidity (RH) prior to grading. Evaluation was conducted by counting the number of live aphids per plant under a microscope. Percent Control was measured by using Abbott's correction formula (W. S. Abbott, “A Method of Computing the Effectiveness of an Insecticide” J. Econ. Entomol. 18 (1925), pp. 265-267) as follows. Corrected % Control=100*(X−Y)/X • where • X=No. of live aphids on solvent check plants and • Y=No. of live aphids on treated plants The results are indicated in the table entitled “Table 3: Assay Results” (See Table Section).

[2] = tested on: CEW (Helicoverpa zea); assay: Bioassays on Corn Earworm (CEW), 128-well diet tray assay; conditions: Helicoverpa zea, 168 h; percent mortality, second instar larvae, 50 μg/cm^2 on artificial diet, five to seven days, 25° C.; read-out: CEW Rating
How it was run: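 Percent larval mortality, averaged across eight wells, read after five to seven days at 25 °C under 14:10 light-dark. Each well held one to five second-instar larvae on diet surface-dosed at 50 μg/cm^2 (compound applied in acetone-water 90:10, then dried).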

[3] = tested on: BAW (Spodoptera exigua); assay: Bioassays on Beet Armyworm (BAW), 128-well diet tray assay; conditions: Spodoptera exigua, 168 h, read-out: BAW Rating
How it was run: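 Diet surface dosed at 50 μg/cm^2 (acetone-water 90:10 vehicle), dried, then infested with second-instar larvae, one to five per well. After five to seven days at 25° C. under 14:10 light-dark, mortality per well was scored and averaged over eight wells.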

SMILES | pest or weed control at 200 ppm [1] [%] | pest or weed control at 50 µg/cm2 [2] [%] | pest or weed control at 50 µg/cm2 [3] [%]
O=C(NC1C[S+]([O-])C1)c1ccc(/C=C/C(c2cc(Cl)c(F)c(Cl)c2)C(F)(F)F)cc1F (stereo not drawn) [AC87] | 0 to 80 | 50 to 100 | 50 to 100
CCNC(=O)NCc1ccc(/C=C/C(c2cc(Cl)c(Cl)c(Cl)c2)C(F)(F)F)cc1Br (stereo not drawn) [CC33] | 0 to 80 | 50 to 100 | 50 to 100
Cc1cc(/C=C/C(c2cc(Cl)cc(Cl)c2)C(F)(F)F)ccc1C(=O)NCc1ccccc1F (stereo not drawn) [AC9] | 0 to 80 | 50 to 100 | 50 to 100
O=C(NCc1ccc(/C=C/C(c2cc(Cl)c(F)c(Cl)c2)C(F)(F)F)cc1Cl)C1CC1 (stereo not drawn) [CC15] | 0 to 80 | 50 to 100 | 50 to 100
O=C(NCc1ccc(/C=C/C(c2cc(Cl)c(Cl)c(Cl)c2)C(F)(F)F)cc1C(F)(F)F)c1cccnc1 (stereo not drawn) [CC23] | 0 to 80 | 50 to 100 | 50 to 100
Cc1cc(/C=C/C(c2cc(Cl)cc(Cl)c2)C(F)(F)F)ccc1C(=O)NCc1ccc(Cl)nc1 (stereo not drawn) [AC7] | 0 to 80 | 50 to 100 | 50 to 100
CC(C)(C)OC(=O)CNC(=O)c1ccc(/C=C/C(c2cc(Cl)c(Cl)c(Cl)c2)C(F)(F)F)cc1Br (stereo not drawn) [AC58] | 0 to 80 | 50 to 100 | 50 to 100
O=C(NCc1ccc(C(F)(F)F)nc1)c1ccc(/C=C/C(c2cc(Cl)c(Cl)c(Cl)c2)C(F)(F)F)cc1Br (stereo not drawn) [AC75] | 0 to 80 | 50 to 100 | 50 to 100
O=C(NCc1ccc(/C=C/C(c2ccc(Cl)c(Cl)c2)C(F)(F)F)cc1Cl)C1CC1 (stereo not drawn) [CC17] | 0 to 80 | 50 to 100 | 50 to 100
FC(F)(F)C(/C=C/c1ccc(CNc2ccccn2)c(Cl)c1)c1cc(Cl)c(Cl)c(Cl)c1 (stereo not drawn) [CC43, (E)-N-(2-Chloro-4-(4,4,4-trifluoro-3-(3,4,5-trichlorophenyl)but-1-en-1-yl)benzyl)pyridin-2-amine] | 0 to 80 | 0 to 50 | 50 to 100
COc1c(Cl)cc(C(/C=C/c2ccc(-n3cncn3)c(C#N)c2)C(F)(F)F)cc1Cl (stereo not drawn) [DC34] | 0 to 80 | 50 to 100 | 50 to 100
O=C(NC1CS(=O)(=O)C1)c1ccc(/C=C/C(c2cc(Cl)cc(Cl)c2)C(F)(F)F)cc1F (stereo not drawn) [AC83, (E)-4-(3-(3,5-Dichlorophenyl)-4,4,4-trifluorobut-1-en-1-yl)-N-(1,1-dioxidothietan-3-yl)-2-fluorobenzamide] | 0 to 80 | 50 to 100 | 50 to 100
O=C(NCc1ccc(/C=C/C(c2cc(Cl)c(Cl)c(Cl)c2)C(F)(F)F)cc1Cl)N1CCOCC1 (stereo not drawn) [CC34] | 0 to 80 | 50 to 100 | 50 to 100
Cc1cc(/C=C/C(c2cc(Cl)cc(Cl)c2)C(F)(F)F)ccc1C(=O)NC1CSC1 (stereo not drawn) [AC10] | 0 to 80 | 50 to 100 | 50 to 100
CCNC(=O)NCc1ccc(/C=C/C(c2cc(Cl)c(Cl)c(Cl)c2)C(F)(F)F)cc1C(F)(F)F (stereo not drawn) [CC32] | 0 to 80 | 50 to 100 | 50 to 100
O=C(NCc1ccc(Cl)nc1)c1ccc(/C=C/C(c2cc(Cl)c(Cl)c(Cl)c2)C(F)(F)F)cc1Br (stereo not drawn) [AC31] | 0 to 80 | 50 to 100 | 50 to 100
Cc1cc(/C=C/C(c2cc(Cl)c(Cl)c(Cl)c2)C(F)(F)F)ccc1C(=O)NCc1cnc(Cl)s1 (stereo not drawn) [AC26] | 0 to 80 | 50 to 100 | 50 to 100
Cc1cc(/C=C/C(c2cc(Cl)c(F)c(Cl)c2)C(F)(F)F)ccc1C(=O)NCC(=O)NCC(F)(F)F (stereo not drawn) [AC69] | 80 to 100 | 50 to 100 | 50 to 100

SMILES | pest or weed control at 200 ppm [1] [%] | pest or weed control at 50 µg/cm2 [2] [%] | pest or weed control at 50 µg/cm2 [3] [%]
Cc1cc(/C=C/C(c2cc(Cl)cc(Cl)c2)C(F)(F)F)ccc1C(=O)NCc1nnc(C2CC2)o1 (stereo not drawn) [AC89, (E)-N-((5-Cyclopropyl-1,3,4-oxadiazol-2-yl)methyl)-4-(3-(3,5-dichlorophenyl)-4,4,4-trifluorobut-1-en-1-yl)-2-methylbenzamide] | 0 to 80 | 50 to 100 | 50 to 100
O=C(NCc1ccc(Cl)nc1)c1ccc(/C=C/C(c2cc(Cl)c(Cl)c(Cl)c2)C(F)(F)F)cc1Cl (stereo not drawn) [AC28] | 0 to 80 | 50 to 100 | 50 to 100
O=C(NCc1ccc(Cl)nc1)c1ccc(/C=C/C(c2cc(Cl)c(Cl)c(Cl)c2)C(F)(F)F)cc1C(F)(F)F (stereo not drawn) [AC36] | 0 to 80 | 50 to 100 | 50 to 100
O=C(NCc1ccc(Cl)nc1)c1ccc(/C=C/C(c2cc(Cl)c(F)c(Cl)c2)C(F)(F)F)cc1F (stereo not drawn) [AC65] | 0 to 80 | 50 to 100 | 50 to 100
O=C(NC1CSC1)c1ccc(/C=C/C(c2cc(Cl)c(F)c(Cl)c2)C(F)(F)F)cc1F (stereo not drawn) [AC67] | 0 to 80 | 50 to 100 | 50 to 100
Cc1cc(/C=C/C(c2cc(Cl)c(F)c(Cl)c2)C(F)(F)F)ccc1C(=O)NCc1cc(Cl)ccn1 (stereo not drawn) [AC77] | 0 to 80 | 50 to 100 | 50 to 100
O=C(CNC(=O)c1ccc(/C=C/C(c2cc(Cl)c(Cl)c(Cl)c2)C(F)(F)F)cc1Br)NCC(F)(F)F (stereo not drawn) [AC66] | 0 to 80 | 50 to 100 | 50 to 100
Cc1cc(/C=C/C(c2cc(Cl)cc(Cl)c2)C(F)(F)F)ccc1C(=O)Nc1ccc(Cl)nc1 (stereo not drawn) [AC59] | 0 to 80 | 50 to 100 | 50 to 100
Cc1cc(/C=C/C(c2ccc(Cl)c(Cl)c2)C(F)(F)F)ccc1C(=O)NCc1ccc(Cl)nc1 (stereo not drawn) [AC37] | 0 to 80 | 50 to 100 | 50 to 100
Cc1cc(/C=C/C(c2cc(Cl)c(Cl)c(Cl)c2)C(F)(F)F)ccc1C(=O)NCC(=O)NCC(F)(F)F (stereo not drawn) [AC78] | 80 to 100 | 50 to 100 | 50 to 100
CCc1cc(/C=C/C(c2cc(Cl)c(F)c(Cl)c2)C(F)(F)F)ccc1C(=O)NCc1ccc(Cl)nc1 (stereo not drawn) [AC72] | 0 to 80 | 50 to 100 | 50 to 100
CN1CCC(NC(=O)c2ccc(/C=C/C(c3cc(Cl)c(Cl)c(Cl)c3)C(F)(F)F)cc2Br)CC1 (stereo not drawn) [AC106, (E)-2-Bromo-N-(1-methylpiperidin-4-yl)-4-(4,4,4-trifluoro-3-(3,4,5-trichlorophenyl)but-1-en-1-yl)benzamide] | 0 to 80 | 50 to 100 | 50 to 100
FC(F)(F)C(/C=C/c1ccc(-n2cncn2)cc1)c1ccc(Cl)c(Cl)c1 (stereo not drawn) [DC12] | 0 to 80 | 50 to 100 | 50 to 100
Cc1cc(/C=C/C(c2cc(Cl)cc(Cl)c2)C(F)(F)F)ccc1C(=O)NNc1ccccc1F (stereo not drawn) [AC17] | 0 to 80 | 50 to 100 | 50 to 100
O=C(CC(F)(F)F)NCc1ccc(/C=C/C(c2cc(Cl)cc(Cl)c2)C(F)(F)F)cc1Cl (stereo not drawn) [CC9] | 0 to 80 | 50 to 100 | 50 to 100
O=C(NC1CS(=O)(=O)C1)c1ccc(/C=C/C(c2cc(Cl)c(Cl)c(Cl)c2)C(F)(F)F)cc1Cl (stereo not drawn) [AC30] | 0 to 80 | 50 to 100 | 50 to 100
O=C(NCc1ccc(Cl)nc1)c1ccc(/C=C/C(c2cc(Cl)cc(Cl)c2)C(F)(F)F)cc1F (stereo not drawn) [AC49] | 0 to 80 | 50 to 100 | 50 to 100
